In patent US20230250096A1, “SUBSTITUTED PHENYL-1H-PYRROLO[2,3-c] PYRIDINE DERIVATIVES” (Janssen Pharmaceutica NV, priority 2021, published 2023):
Where two headings read alike, the source gives them in different places.

Legend:
Type in all cases: cell-based, human
KO-52 cells = experiment: Proliferation assay (spheroid confluence, 8 days), KO-52 control cell line; conditions: read-out: spheroid assay_KO-52 IC50
Method in brief: (§1)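 Absolute IC50 derived from spheroid confluence imaged on day 8, scaled between DMSO (0%) and a cytotoxic low control such as 1 μM staurosporin, fitted with variable slope, bounds fixed at 0 and 100%. Seeding 200 cells/well (300 for KO-52), ultra-low attachment plates, 0.3% DMSO, 37° C.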

OCI-AML3 cells = experiment: Proliferation assay (spheroid confluence, 8 days), OCI-AML3; conditions: Homo sapiens, OCI-AML-3, OCI-AML3; read-out: spheroid assay_OCI-AML3 IC50
Method in brief: as §1

MEIS1 mRNA expression = MEIS1 mRNA expression assay (Quantigene Singleplex) in MOLM14 cells; conditions: 48 hours incubation
Method in brief: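 Read-out: MEIS1 transcript counts, background-subtracted and divided by RPL28, expressed as fold change over DMSO-treated cells, then dose-response modelled for IC50. MOLM14 cells (3,750/well) received graded compound for 48 h before lysis and QuantiGene hybridization at 55 °C.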

MOLM14 cells = experiment: Proliferation assay (spheroid confluence, 8 days), MOLM14; conditions: read-out: spheroid assay_MOLM14 IC50
Method in brief: as §1

SMILES	IC50 (OCI-AML3 cells) [nM]	IC50 (MEIS1 mRNA expression; Homo sapiens, MOLM-14, 48 h) [nM]	IC50 (MOLM14 cells; Homo sapiens, MOLM-14, MOLM14) [nM]	IC50 (MOLM14 cells; MOLM14) [nM]	IC50 (MEIS1 mRNA expression) [nM]	IC50 (KO-52 cells; Homo sapiens) [nM]	IC50 (KO-52 cells) [nM]
Cc1cncc2c1c(CC1CCN(CC3CCN(C(=O)CC#N)CC3)C1)cn2-c1ccc(F)cc1C(=O)N(C)C(C)C (single isomer, unassigned) [Compound 60]	13	7	13			2700	
Cc1cncc2c1c(C[C@@H]1CCN(CC3CCOCC3)C1)cn2-c1ccc(F)cc1C(=O)N(CCO)C(C)C [Compound 357]		15	8			3000	
CNC(=O)[C@H]1CC[C@H](CN2CCC(Cc3cn(-c4ccc(F)cc4C(=O)N(C)C(C)C)c4cncc(C)c34)C2)CC1 (single isomer, unassigned) [Compound 70]	68	48		40		8500	
COCC(=O)N1CCC(CN2CCC(Cc3cn(-c4ccc(F)cc4C(=O)N(C)C(C)C)c4cncc(C)c34)C2)CC1 (single isomer, unassigned) [Compound 59]	12	9	11			2100	
CC(=O)N1CCC(CN2CCC(Cc3cn(-c4ccc(F)cc4C(=O)N(C)C(C)C)c4cncc(C)c34)CC2)CC1 [Compound 58]		183	176			10400	
Cc1cncc2c1c(C[C@@H]1CCN(CC3CCOCC3)C1)cn2-c1ccc(F)cc1C(=O)N(C)C(C)C (single isomer, unassigned) [Compound 42]		45	31			2800	
CC(C)C([C@H]1C[C@@H](N(C)C)C1)N1CC(Cc2cn(-c3ccc(F)cc3C(=O)N(C)C(C)C)c3cncc(Cl)c23)C1 (stereo partly shown) [Compound 41]		15	14			1400	
COCC(=O)N1CCC(CN2CC(Cc3cn(-c4ccc(F)cc4C(=O)N(C)C(C)C)c4cncc(C)c34)C2)CC1 [Compound 66]		46	18			7700	
Cc1cncc2c1c(C[C@H]1CCN(CC(C)C)C1)cn2-c1ccc(F)cc1C(=O)N(C)C(C)C (single isomer, unassigned) [Compound 45]		56	53			6200	
Cc1cncc2c1c(C[C@H]1CCN(C(C)C3CCOCC3)C1)cn2-c1ccc(F)cc1C(=O)N(C)C(C)C (mixture of isomers) [Compound 49]		17	3			3000	
Cc1cncc2c1c(C[C@H]1CCN(CC3CCOCC3)C1)cn2-c1ccc(F)cc1C(=O)N(C)C(C)C (single isomer, unassigned) [Compound 43]	23	24	14			3300	
CNC(=O)[C@H]1CC[C@H](CN2CCC(Cc3cn(-c4ccc(F)cc4C(=O)N(C)C(C)C)c4cncc(C)c34)C2)CC1 (single isomer, unassigned) [Compound 71]				83	48		> 15000
Cc1cncc2c1c(CC1CN(CC3CCN(C(=O)CC#N)CC3)C1)cn2-c1ccc(F)cc1C(=O)N(C)C(C)C [Compound 67]		~68	48			12000	
Cc1cncc2c1c(C[C@H]1CCN(C[C@H]3CC[C@H](NS(C)(=O)=O)CC3)C1)cn2-c1ccc(F)cc1C(=O)N(C)C(C)C (single isomer, unassigned) [Compound 69]	21	17	5			11000	
Cc1cncc2c1c(CC1CN(CC3CCOCC3)C1)cn2-c1ccc(F)cc1C(=O)N(C)C(C)C [Compound 61]		23	10			7900	
Cc1cncc2c1c(C[C@@H]1CCN(CC(C)C)C1)cn2-c1ccc(F)cc1C(=O)N(C)C(C)C (single isomer, unassigned) [Compound 44]		43	71			4700	
COCCN(C)CCCC(C(C)C)N1CC[C@@H](Cc2cn(-c3ccc(F)cc3C(=O)N(C)C(C)C)c3cncc(C)c23)C1 (stereo partly shown) [Compound 1]		4	2			7500	
CC(=O)N1CCC(CN2CC[C@@H](Cc3cn(-c4ccc(F)cc4C(=O)N(C)C(C)C)c4cncc(C)c34)C2)CC1 (single isomer, unassigned) [Compound 50]		89	39			2300	
CC(=O)N1CCC(CN2CC(Cc3cn(-c4ccc(F)cc4C(=O)N(C)C(C)C)c4cncc(C)c34)C2)CC1 [Compound 63]	121	83	53			5900	

The next lines start with results.

IC50 (OCI-AML3 cells) [nM]	IC50 (MEIS1 mRNA expression; Homo sapiens, MOLM-14, 48 h) [nM]	IC50 (MOLM14 cells; Homo sapiens, MOLM-14, MOLM14) [nM]	IC50 (MOLM14 cells; MOLM14) [nM]	IC50 (MEIS1 mRNA expression) [nM]	SMILES	IC50 (KO-52 cells; Homo sapiens) [nM]	IC50 (KO-52 cells) [nM]
11	11	8			Cc1cncc2c1c(C[C@@H]1CCN(CC3CCOCC3)C1)cn2-c1ccc(F)cc1C(=O)N(C[C@H](C)O)C(C)C (single isomer, unassigned) [Compound 365b]		
	6	< 1.8			CCN(C(=O)c1cc(F)ccc1-n1cc(CC2CN(C(C(C)C)[C@H]3C[C@@H](N4C[C@H]5CN(C(C)=O)C[C@@H]5C4)C3)C2)c2c(C)cncc21)C(C)C (mixture of isomers) [Compound 38a]	800	
	5	2			CC(=O)N1C[C@@H]2CN([C@H]3C[C@@H]([C@@H](C(C)C)N4CC(Cc5cn(-c6ccc(F)cc6C(=O)N(C)C(C)C)c6cncc(Cl)c56)C4)C3)C[C@H]2C1 (single isomer, unassigned) [Compound 39a]	> 15000	
7	9	3			Cc1cncc2c1c(C[C@H]1CCN([C@@H](C)C3CCOCC3)C1)cn2-c1ccc(F)cc1C(=O)N(C)C(C)C (single isomer, unassigned) [Compound 49b]	4100	
	22	5			CC(=O)N1CCN([C@H]2C[C@@H]([C@@H](C(C)C)N3CC(Cc4cn(-c5ccc(F)cc5C(=O)N(C)C(C)C)c5cncc(C)c45)C3)C2)CC1 (single isomer, unassigned) [Compound 32a]	5500	
	11	10			Cc1cncc2c1c(CC1CN([C@@H](C(C)C)[C@H]3C[C@@H](N4CCC(S(C)(=O)=O)CC4)C3)C1)cn2-c1ccc(F)cc1C(=O)N(C)C(C)C [Compound 33a]	3000	
	27	8			CCN(C(=O)c1cc(F)ccc1-n1cc(CC2CN(C(C(C)C)[C@H]3C[C@@H](N4CCN(S(C)(=O)=O)CC4)C3)C2)c2c(C)cncc21)C(C)C (stereo partly shown) [Compound 37a]	800	
